Legend:
Assay type in all cases: cell-based, human
[1] = test system: plasminogen; experiment: Plasminogen level in hESC conditioned media by ELISA; conditions: heparin 100 ug/mL; control siRNA, ANXA2 siRNA, non-PE and sPE decidualized hESCs (all conditions)
Method: Plasminogen level was evaluated in conditioned media by ELISA kit (Cell Biolabs, CA, USA) following manufacturer's instructions. Average absorbance (Δ450 nm) in duplicate wells was calculated by subtracting the background from wells with media without hESC.
(§1) hESCs were cultured on monolayer in presence of 50 μg/mL and 100 μg/mL of heparin (Sigma, Madrid, during 15, 30 and 60 min to elaborate a dose-response experiment. Conditioned media from hESC cells were collected to analyze plasminogen levels, plasmin activity and metalloproteases production.

[2] = test system: plasmin; experiment: Plasmin activity in hESC conditioned media, fluorimetric assay; conditions: heparin 100 ug/mL
Method: Plasmin activity was measured in conditioned media by fluorimetric assay kit (Anaspec, CA, USA). It is based in a protease cleavage to plasmin substrate that generates a rhodamine 110 fluorophore which has a bright green fluorescence detected at 496 nm/520 nm (excitation/emission). Fifty microlitres of conditioned media was pre-incubated 10 min at room temperature and 50 uL of plasmin substrate solution was added into each well. Fluorescence signal was obtain for kinetic reading immediately start measuring and record data every 5 min for 60 min, with a total of 13 lectures. Each condition was evaluated in duplicate. The fluorescence was Interpol to concentration values using an Rh110 fluorescence reference standard.
as §1

[3] = test system: MMP2; experiment: MMP2 level in hESC conditioned media by ELISA; conditions: heparin treatment, all hESC conditions
Method: (§2) MMP2 and MMP9 pro and active protein forms were evaluated by commercial ELISA analysis (RayBiotech, GA, USA). These assays employ an antibody specific for humans MMP-2 and MMP-9 coated on a 96-well plate. Standards and samples are pipette by duplicated into the wells and MMP-2 and MMP-9 present in a sample is bound to the wells by the immobilized antibody. Biotinylated anti-human MMP-2 and MMP-9 and HRP-conjugated streptavidin were added. TMB substrate solutions were added and absorbance at 450 nm was extrapolated to standard curve.
as §1

[4] = test system: MMP9; experiment: MMP9 level in hESC conditioned media by ELISA; conditions: heparin treatment, all hESC conditions
Method: as §2, §1

[5] = test system: ANXA2; experiment: Secreted extracellular ANXA2 in hESC conditioned media by ELISA; conditions: heparin treatment; control, ANXA2 siRNA and sPE hESCs
Method: Protein extracts (2 μg/well) and conditioned media were analyzed by ELISA (R&D Systems, MN, USA). Inmobilized capture antibody specifically binds Annexin A2. After washing away un-bounded material, a biotinylated detection antibody specific for Annexin A2 is used to detect the bound Annexin A2, using a standard Streptavidin-HRP format. Three replicates were performed for each condition and the absorbance values were extrapolated to standard curve to establish human Annexin A2 concentration (pg/mL).
as §1

In the case of heparin, the “Plasminogen secretion into the conditioned media” value [1] is reported as “significantly increased”, the Plasmin activity ([2]; ANXA2 siRNA hESCs and hESCs from sPE) is reported as “significant increase” and the “Plasmin activity in conditioned media” value ([2]; control siRNA, ANXA2 siRNA, non-PE and sPE decidualized hESCs (all conditions)) is reported as “significantly increased”. For the same substance, the MMP2 production [3] was “significant increase”, the MMP9 production [4] was “significant increase” and the “ANXA2 protein secreted to the culture media” value [5] was “significant increase”.

From patent US20170097358A1, “EARLY DETECTION OF PREECLAMPSIA” (Igenomix S.L., priority 2014, published 2017)
